Measurements taken from PMC9841576, “Characterisation of C101248: A novel selective THIK-1 channel inhibitor for the modulation of microglial NLRP3-inflammasome” (Neuropharmacology, 2023).
Where two headings read alike, the source gives them in different places.

Tests used:
[1] = test system: NLRP3-dependent release of IL-1β; test: LPS/ATP-induced IL-1β release from adult microglia; assay type: cell-based, mouse; settings: 0.1 and 1 μM
Description: Microglia were isolated from C57BL/6 male and female mice aged 6–10 weeks (Charles River, UK) as previously described ([Drinkall et al., 2022]). In brief, brains were isolated, minced, and digested using a Neural Tissue Dissociation Kit (Miltenyi Biotec Ltd., UK) according to manufacturer's instructions. The resulting suspension was dissociated using a Dounce tissue grinder (Sigma). Myelin was removed by centrifuging cell suspension in 33% Percoll (GE Healthcare) for 10 min at 1000 g with low break and aspiration of myelin layer. Cells were pelleted by diluting 1:4 in Ca^2+/Mg^2+ free Hank's balanced salt solution (CMF-HBSS, Gibco) and centrifuged for 10 min at 500 g. […] The eluted microglia were counted and plated onto 96-well Cell + plates (Sarstedt) at a density of 30,000 cells per well in culture medium (DMEM/F12, 10% FBS, 1% PenStrep, 2 mM glutamine, 20 ng/ml IL-34 (R&D Systems), and 50 ng/ml transforming growth factors-β1 (Miltenyi Biotec Ltd., UK)). […]
IL-1β from culture supernatants was measured with DuoSet ELISA kit (R&D Systems) following the manufacturer instructions.

mouse THIK-1 = target: T1, mouse THIK-1 (Mus musculus, UniProt Q8R1P5); test: FLIPR thallium influx assay, HEK-mTHIK-1 cells; assay type: cell-based
T1 construct: expressed in transfected cells
T1 sequence (Q8R1P5 1-405): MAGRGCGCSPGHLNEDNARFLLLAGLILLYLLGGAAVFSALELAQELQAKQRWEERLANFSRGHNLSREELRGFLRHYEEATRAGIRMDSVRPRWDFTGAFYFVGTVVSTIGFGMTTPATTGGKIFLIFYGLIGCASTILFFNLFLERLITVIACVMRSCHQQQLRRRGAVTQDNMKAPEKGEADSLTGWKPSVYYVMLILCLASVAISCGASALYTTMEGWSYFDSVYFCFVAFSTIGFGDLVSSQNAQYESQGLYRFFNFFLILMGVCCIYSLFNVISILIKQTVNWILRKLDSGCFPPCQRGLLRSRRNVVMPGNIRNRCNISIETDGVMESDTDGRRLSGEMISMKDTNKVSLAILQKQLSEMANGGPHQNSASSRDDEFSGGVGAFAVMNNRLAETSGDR
Description: HEK-293 cells were transfected with human THIK-1, TREK-1, TWIK-2, or mouse THIK-1 cDNA cloned into pcDNA3.1, using either Fugene HD transfection reagent (Promega) or electroporation (MaxCyte STX instrument). Cells stably expressing the relevant genes were selected based on resistance to 500 μg/ml geneticin (Gibco). For human THIK-1 and TWIK-2 expressing cells, monoclonal lines were isolated by limited dilution cloning; mouse THIK-1 and human TREK-1 expressing cells were maintained as polyclonal pools. The HEK-293 pools and monoclones stably expressing the relevant genes were maintained in DMEM (Life Technologies), supplemented with 10% FCIII (HyClone, Fetal clone III) and 500 μg/ml geneticin. A CHO-Kv2.1 cell line was purchased from Millipore (accession NM_004975) and maintained in F12 (Life Technologies), supplemented with 10% FCSIII (Thermo Scientific) and 500 μg/ml geneticin (Life Technologies). For thallium flux assays, banks of frozen cell aliquots were prepared the day prior to assay, cells were thawed into media and seeded into PDL coated 384-well plates (Corning) at 25,000 (human/mouse THIK-1, TREK-1) or 30,000 (TWIK-2) cells/well (25 μl/well). CHO-Kv2.1 cells were seeded into non-PDL coated plates (Corning) at 5000 cells/well. Plated cells were incubated overnight at 37 °C, 5% CO2 in a humidified atmosphere. For Q-Patch assays, cells were cultured for 7 days prior to assay, dissociated, and diluted to 1–2.5 million/ml in EX-CELL ACF serum free media containing HEPES (25 mM; Life Technologies), penicillin/streptomycin (100 U/ml, 100 μg/ml; Life Technologies) and a trypsin inhibitor (0.04 mg/ml).
A fluorescence-based thallium influx assay (Molecular Devices potassium assay kit) was used to monitor channel activity. […] Using a fluorescent imaging plate reader (FLIPR) tetra plate reader, 15 μl thallium stimulus solution was added to the cell plate and the fluorescence signal recorded every second for 1 min (excitation: 470–495 nm, emission: 515–575 nm).

IC50 (mouse THIK-1; HEK-mTHIK-1, normalised to TPA controls, read-out: IC50, mouse THIK-1 (thallium influx)): 49 nM | maximum inhibition (mouse THIK-1; HEK-mTHIK-1, thallium influx): 100% | IC50 (mouse THIK-1; mouse THIK-1, read-out: IC50, inhibition of mouse THIK-1 (abstract)): ~50 nM
SMILES: Nc1nonc1-c1nc2ccccc2n1Cc1ccncc1 [C101248]
effect on LPS/ATP-induced IL-1β release [1]: significantly attenuated
